Data on 19 compounds can be found in patent US20050282818A1, “Ubiquitin ligase inhibitors” (Rigel Pharmaceuticals, Inc., priority 2004, published 2005).

pIC50: −log10 of the molar value. Some results are limits rather than exact numbers.

One experiment has as its target T1, TRAF6/Uev1A/Ubc13 (Homo sapiens, UniProt Q9Y4K3).
T1 sequence (Q9Y4K3 1-522): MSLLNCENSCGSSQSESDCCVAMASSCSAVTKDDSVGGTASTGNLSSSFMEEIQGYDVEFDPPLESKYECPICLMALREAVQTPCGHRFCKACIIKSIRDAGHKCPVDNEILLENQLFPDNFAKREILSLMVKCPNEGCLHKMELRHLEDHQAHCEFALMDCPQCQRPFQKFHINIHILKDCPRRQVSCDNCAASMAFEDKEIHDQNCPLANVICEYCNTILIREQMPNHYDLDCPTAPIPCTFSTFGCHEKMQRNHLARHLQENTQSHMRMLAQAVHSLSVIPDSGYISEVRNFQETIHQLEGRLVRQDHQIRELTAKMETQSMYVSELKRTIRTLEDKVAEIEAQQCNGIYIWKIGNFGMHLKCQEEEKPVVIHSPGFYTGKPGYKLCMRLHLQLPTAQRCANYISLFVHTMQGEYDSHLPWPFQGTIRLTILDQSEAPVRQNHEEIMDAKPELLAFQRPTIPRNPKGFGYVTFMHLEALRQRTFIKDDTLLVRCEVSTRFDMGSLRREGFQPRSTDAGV
The experiment can be described thus: TRAF6/Uev1A/Ubc13 plate-based ubiquitin ligase assay. Type of experiment: biochemical. The procedure, abridged:
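Ligase activity was read as luminescence from anti-Flag/HRP detection of Flag-ubiquitin bound to casein-blocked Ni-plates alongside His-ubiquitin after a 1 h room-temperature reaction. Buffer: 62.5 mM Tris pH 7.5, 6.25 mM MgCl2, 1.0 mM DTT, 2 μM ATP; E1, Uev1a/Ubc13 and TRAF6 added last to start. IC50s derived across compound concentrations.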

In experiment [1] the test system is ICAM-1 expression in A549 cells. The experiment is described as follows: ICAM assay (IL-1 induced ICAM-1/CD54 expression in A549 cells). Type of experiment: cell-based, human. The settings on record: Homo sapiens, A549, ICAM assay. The text has this:
The expression of intercellular adhesion molecule (ICAM)-1 in endothelial cells is pivotal in supporting lymphocyte migration across the vascular endothelium. TNF/IL-1 induces the NF-kB pathway in which NF-kB acts as a transcription factor and activation of NF-kB induces ICAM expression. IkB inhibits NF-KB by binding to it and retaining NF-kB in the cytoplasm. Upon cytokine stimulation, several signaling molecule including TRAF6, IKKs, and TAK1 are activated which lead to the phosphorylation of IkB. Phosphorylated IkB is then ubiquitinated by the SCF complex and degraded by proteasome, thereby releasing NF-kB to translocate into the nucleus. In the nucleus, NF-kB binds to DNA and activates transcription of various genes that are involved in inflammation, cell survival, and apoptosis. The ICAM assay is a primary assay for HTS as well as a cell based assay for TRAF6 inhibitors.
The following materials are used 96-well plates; F12K complete medium that includes 10% FBS and 1% P/S (penicillin/streptomycin); 1×PBS; 5 ug/ml IL-1, Human CD54 (CALTAG Laboratory, Cat#MHCD5400-4); anti-mouse-IgG (Jackson Lab, Cat#115-035 146); and A549 cells.
Procedure. 10,000 A549 cells/well were seeded in 100 μl F12K complete medium in a 96-well white plate. The seeded plate was incubate at 37° C. incubator in 5% CO2 overnight. After the overnight incubation, 4 μl of diluted test compound was added and incubated for 1 hour at 37° C. After the 1 hour incubation, 4 μl of 25 ng/ml IL-1 was added to each well and the cells were stimulated at 37° C. for 4 hours.
After stimulation, the cells were stained with CD54 (1:1000 diluted with medium) and anti-mouse IgG (1:1100 diluted with medium) for 1 hour. Subsequently, the medium was removed and each well was washed with 200 μl of PBS three times. Detection of activity was performed by addition of 100 μl/well of lumino substrate.

The next experiment deals with APC11/APC2 (Homo sapiens, UniProt Q9NYG5+Q9UJX6). The experiment is described as follows: APC-11/APC-2 ligase assay (APC auto ubiquitination). Format: biochemical. The settings on record: APC assay. How it is done: For the assays described below, the TRAF6/Uev1A/UBC13 assay is the biochemical plate-based assay of TRAF6 ligase activity using Ubc13 as the E2 enzyme. The gel-based assay is the biochemical solution-based TRAF6 ligase assay (by SDS-PAGE and Western blot) to confirm the plate-based ELISA assay. The APC assay is an assay which is another E3 ligase (APC2/APC11) biochemical assay.
Sequence of APC11/APC2 (Q9NYG5 whole entry): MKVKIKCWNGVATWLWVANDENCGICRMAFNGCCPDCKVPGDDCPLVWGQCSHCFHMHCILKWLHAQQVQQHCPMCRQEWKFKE
Sequence of APC11/APC2 (Q9UJX6 whole entry): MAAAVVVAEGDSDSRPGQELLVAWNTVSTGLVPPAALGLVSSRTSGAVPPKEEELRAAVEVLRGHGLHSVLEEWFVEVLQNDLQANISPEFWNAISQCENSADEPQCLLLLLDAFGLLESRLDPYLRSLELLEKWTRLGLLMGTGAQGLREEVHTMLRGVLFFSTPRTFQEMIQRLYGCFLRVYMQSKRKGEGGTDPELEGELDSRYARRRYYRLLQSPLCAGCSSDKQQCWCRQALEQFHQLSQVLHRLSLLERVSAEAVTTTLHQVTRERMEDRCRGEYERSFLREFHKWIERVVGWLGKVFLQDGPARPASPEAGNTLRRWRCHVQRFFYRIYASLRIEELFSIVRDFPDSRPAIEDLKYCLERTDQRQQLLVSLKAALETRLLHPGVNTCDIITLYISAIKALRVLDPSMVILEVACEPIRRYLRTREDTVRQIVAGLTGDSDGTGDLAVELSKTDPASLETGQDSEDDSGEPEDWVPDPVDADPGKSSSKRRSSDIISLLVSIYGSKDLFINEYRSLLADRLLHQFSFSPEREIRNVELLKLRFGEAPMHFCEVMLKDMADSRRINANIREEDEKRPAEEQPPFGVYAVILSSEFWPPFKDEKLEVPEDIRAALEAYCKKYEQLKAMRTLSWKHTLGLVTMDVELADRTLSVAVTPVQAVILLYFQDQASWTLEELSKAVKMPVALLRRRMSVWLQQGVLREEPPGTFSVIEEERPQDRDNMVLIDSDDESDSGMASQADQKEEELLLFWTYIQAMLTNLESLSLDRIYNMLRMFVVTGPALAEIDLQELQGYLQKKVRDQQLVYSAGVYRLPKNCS
E3 (His APC11/APC2— “APC”) auto ubiquitination was measured as described in U.S. patent application Ser. No. 09/826,312 (Publication No. U.S. 2002 0042083 A1), which is incorporated by reference in its entirety. Details of the protocol are described below. Activity in the presence of the compound was determined relative to a parallel control in which only DMSO was added. Values of the IC50 were typically determined using 6 or 8 different concentrations of the compound, although as few as 2 concentrations may be used to approximate the IC50 value.
Nickel coated 96 well plates (Pierce 15242) were blocked for 1 hour with 100 μl of blocking buffer at room temperature. The plates were washed 4 times with 225 μl of 1 […]PBS and 80 μl of the reaction buffer were added that contained 100 ng/well of Flag ubiquitin. To this, 10 μl of the test compound diluted in DMSO were added. After the test compound was added, 10 μl of E1 (human), E2 (Ubch5c), and APC in Protein Buffer was added to obtain a final concentration of 5 ng/well of E1, 20 ng/well of E2 and 100 ng/well of APC. The plates were shaken for 10 minutes and incubated at room temperature for 1 hour. After incubation, the plates were washed 4 times with 225 μl of 1×PBS and 100 μl/well of Antibody Mix were added to each well. The plates were incubated at room temperature for another hour after which they were washed 4 times with 225 μl of 1×PBS and 100 μl/well of Lumino substrate were added to each well. The luminescence was measured by using a BMG luminescence microplate reader. The Blocking Buffer (1% Casein in 1×PBS) was stored at 4° C. until use.
The reaction buffer consisted of 62.5 mM Tris pH 7.6 (Trizma Base—Sigma T 8524), 3 mM MgCl2 (Magnesium Chloride—Sigma M 2393), 1 mM DTT (Sigma D 9779), 2.5 mM ATP (Roche Boehringer Mann Corp. 635 316), 100 ng/well of Flag ubiquitin, 0.1% BSA (Sigma A 7906), and 0.05% Tween 20 (Sigma P 7949).
The Protein Buffer consisted of 20 mM Tris pH 7.6, 10% glycerol (Sigma G 5516) and 1 mM DTT.
The antibody mix consisted of 0.25% BSA (Sigma A 7906) in 1×PBS, 1/50,000 anti Flag (Sigma F 3165), 1/100,000 of anti Mouse IgG HRP (Jackson Imrunoresearch #115 035 146).
The substrate mix consisted of SuperSignal Substrate from Pierce (catalog number 37070ZZ) and was prepared by mixing 100 ml of the peroxide solution, 100 ml of the enhancer solution and 100 ml of Milli Q® water.

Take `Oc1ccc2c(c1)cc(Sc1cccc3cccnc13)c1nonc12` [compound 425, 4-(quinolin-8-ylthio)naphtho[2,1-c][1,2,5]oxadiazol-7-ol]: the negative logarithm of the IC50 (pIC50) (against TRAF6/Uev1A/Ubc13; in experiment [1]; at APC11/APC2) was at most 4.70 in each case.

With `COc1ccc(OC)c(NS(=O)(=O)c2ccc(N3CCOCC3)c3nonc23)c1` [compound 369, N-(2,5-dimethoxyphenyl)-7-(morpholin-4-yl)-2,1,3-benzoxadiazole-4-sulfonamide], the pIC50 (against TRAF6/Uev1A/Ubc13; in experiment [1]; at APC11/APC2) was at most 4.70 in each case.

For the compound `COc1ccc2nonc2c1-c1cc(C)cc(C)c1` [compound 450, 4-(3,5-dimethylphenyl)-5-methoxy-2,1,3-benzoxadiazole], the pIC50 (against TRAF6/Uev1A/Ubc13; in experiment [1]; at APC11/APC2) was at most 4.70 in each case.

In the case of `O=[N+]([O-])c1ccc(-c2ccc(Oc3ccccc3)cc2)c2nonc12` [compound 464, 4-nitro-7-(4-phenoxyphenyl)-2,1,3-benzoxadiazole], the pIC50 (against TRAF6/Uev1A/Ubc13; in experiment [1]; against APC11/APC2) was 4.70 to 6.00 throughout.

On to `Cc1ccccc1-c1ccc([N+](=O)[O-])c2nonc12` [compound 439, 4-nitro-7-o-tolyl-2,1,3-benzoxadiazole], for which the pIC50 was at most 4.70 at TRAF6/Uev1A/Ubc13, 4.70 to 6.00 in experiment [1] and at most 4.70 against APC11/APC2.

`COc1ccc(OC)c(NS(=O)(=O)c2ccc(Nc3ccccc3OC)c3nonc23)c1` [compound 367, N-(2,5-dimethoxyphenyl)-7-([2-methoxyphenyl]amino)-2,1,3-benzoxadiazole-4-sulfonamide]: the pIC50 (against TRAF6/Uev1A/Ubc13; in experiment [1]; against APC11/APC2) was at most 4.70 each time.

As to `FC(F)(F)c1cc(-c2ccccc2)c2nonc2c1` [compound 474, 4-phenyl-6-(trifluoromethyl)-2,1,3-benzoxadiazole], the pIC50 (on TRAF6/Uev1A/Ubc13; in experiment [1]; against APC11/APC2) was at most 4.70 each time.

`CC(=O)c1cccc(-c2ccc([N+](=O)[O-])c3nonc23)c1` [compound 443, 1-(3-[7-nitro-2,1,3-benzoxadiazol-4-yl]phenyl)ethanone]: the pIC50 (against TRAF6/Uev1A/Ubc13; in experiment [1]; at APC11/APC2) was 4.70 to 6.00 in each case.

For `O=[N+]([O-])c1ccc(Nc2ccccc2OC(F)(F)F)c2nonc12` [compound 373], the pIC50 at TRAF6/Uev1A/Ubc13 is at most 4.70; in experiment [1], 4.70 to 6.00; on APC11/APC2, 4.70 to 6.00.

For `Fc1c(N2CCOCC2)cc2nonc2c1F` [compound 406, 4,5-difluoro-6-(morpholin-4-yl)-2,1,3-benzoxadiazole], the pIC50 (at TRAF6/Uev1A/Ubc13; in experiment [1]; against APC11/APC2) was at most 4.70 throughout.

Take `Nc1ccc(OS(=O)(=O)c2ccc(Cl)c3nonc23)c2ccccc12` [compound 391, 4-aminonaphthalen-1-yl 7-chloro-2,1,3-benzoxadiazole-4-sulfonate]: the pIC50 (at TRAF6/Uev1A/Ubc13; in experiment [1]; against APC11/APC2) was 4.70 to 6.00 throughout.

Regarding `O=S(=O)(Nc1ccc(F)cc1F)c1ccc(Cl)c2nonc12` [compound 364, 7-chloro-N-(2,4-difluorophenyl)-2,1,3-benzoxadiazole-4-sulfonamide], the pIC50 (against TRAF6/Uev1A/Ubc13; in experiment [1]; against APC11/APC2) was at most 4.70 each time.

As to `Cc1cc(NS(=O)(=O)c2ccc(Cl)c3nonc23)no1` [compound 368, 7-chloro-N-(5-methylisoxazol-3-yl)-2,1,3-benzoxadiazole-4-sulfonamide], the pIC50 (at TRAF6/Uev1A/Ubc13; in experiment [1]; on APC11/APC2) was at most 4.70 each time.

For `O=c1[nH]c2ccccc2n1C1CCN(S(=O)(=O)c2ccc(Sc3cccc4cccnc34)c3nonc23)CC1` [compound 190, 1-(1-{[7-(quinolin-8-ylthio)-2,1,3-benzoxadiazol-4-yl]sulfonyl}piperidin-4-yl)-1,3-dihydro-2H-benzimidazol-2-one], the pIC50 against TRAF6/Uev1A/Ubc13 and at APC11/APC2 was 4.70 to 6.00 each time.

On to `COc1ccc(C)cc1NS(=O)(=O)c1ccc(Sc2cccc3cccnc23)c2nonc12` [compound 384, N-(2-methoxy-5-methylphenyl)-7-(quinolin-8-ylthio)-2,1,3-benzoxadiazole-4-sulfonamide], for which the pIC50 on TRAF6/Uev1A/Ubc13 is 4.70 to 6.00; in experiment [1], at most 4.70; on APC11/APC2 it was at most 4.70.

As for `O=[N+]([O-])c1ccc(Sc2cccc(Cl)c2)c2nonc12` [compound 149, 4-[(3-chlorophenyl)thio]-7-nitro-2,1,3-benzoxadiazole], the pIC50 against TRAF6/Uev1A/Ubc13 and on APC11/APC2 was 4.70 to 6.00 each time.

On to `N#Cc1cccnc1N1CCN(S(=O)(=O)c2c(Sc3cccc4cccnc34)ccc3nonc23)CC1` [compound 183, 2-(4-{[5-(quinolin-8-ylthio)-2,1,3-benzoxadiazol-4-yl]sulfonyl}piperazin-1-yl)nicotinonitrile], for which the pIC50 against TRAF6/Uev1A/Ubc13 and on APC11/APC2 was 4.70 to 6.00 each time.

For `O=[N+]([O-])c1ccc(N2CCN(c3cnccn3)CC2)c2nonc12` [compound 84], the pIC50 against TRAF6/Uev1A/Ubc13 and against APC11/APC2 was 4.70 to 6.00 throughout.

As for `Cc1ccc(Sc2ccc([N+](=O)[O-])c3nonc23)cc1` [compound 157, 4-[(4-methylphenyl)thio]-7-nitro-2,1,3-benzoxadiazole], the pIC50 against TRAF6/Uev1A/Ubc13 and against APC11/APC2 was 4.70 to 6.00 throughout.

For orientation: pIC50 means the IC50 on a negative log10 scale, so that one unit is a factor of ten. A lower pIC50 goes with a high IC50.
